Drawing on ChEMBL document CHEMBL1124029, “Novel DNA groove binding alkylators: design, synthesis, and biological evaluation” (1988), this text covers MIC for 8 compounds.

Structures are written as SMILES. Some results are limits rather than exact numbers.

This experiment deals with Vaccinia virus. Put plainly: Minimum inhibitory concentration required to reduce virus induced cytopathogenicity by 50% against vaccinia virus in rabbit primary kidney cell cultures. The format is functional. The following applies: Orthopoxvirus vaccinia. In general terms: Damage to the host cells serves as the signal in cytopathic effect assays.

In the case of `Cl.Cn1cc(NC(=O)c2cc(NC(=O)C(Cl)(Cl)Cl)cn2C)cc1C(=O)NCCC(=N)N`, the MIC was above 100 µg/mL.
In the case of `Cl.Cn1cc(NC(=O)c2cc(NC(=O)CCl)cn2C)cc1C(=O)NCCC(=N)N` it was 10 µg/mL.
`Cl.Cn1cc(NC(=O)c2cc(NC(=O)CCCCl)cn2C)cc1C(=O)NCCC(=N)N` returned an MIC of 20 µg/mL.
`Cl.Cl.Cn1cc(NC(=O)c2cc(NC(=O)c3cc(NC=O)cn3C)cn2C)cc1C(=O)NCCC(=N)N` showed an MIC of 0.2 µg/mL.
Consider `CC[N+](CC)(CC)CC.Cn1cc(NC(=O)c2cc(NC(=O)C(Cl)Cl)cn2C)cc1C(=O)NCCC(=N)N.O=S(=O)([O-])O`, for which the MIC stood at 20 µg/mL.
The same measure for `Cl.Cn1cc(NC(=O)c2cc(NC(=O)CF)cn2C)cc1C(=O)NCCC(=N)N`: 7 µg/mL.
In the case of `Cl.Cl.Cn1cc(NC(=O)c2cc(NC(=O)CNC(=N)N)cn2C)cc1C(=O)NCCC(=N)N` [CONGOCIDINE] it was 2 µg/mL; in that of `Cl.Cn1cc(NC(=O)c2cc(NC(=O)C3CC3)cn2C)cc1C(=O)NCCC(=N)N`, above 100 µg/mL.
